Experimental data taken from the METLIN SMRT retention time set (Domingo-Almenara et al. 2019).

Test: gradient 5% acetonitrile 3 min, to 50% in 2 min, to 85% in 15 min, held 3 min, 100 µL/min
Settings: column: Zorbax Extend-C18 2.1 x 50 mm; eluents: water / acetonitrile, 0.1% formic acid
Outline: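 Over 3 months, pure standards in mixtures of ~100 molecules were run by HPLC coupled to a quadrupole time-of-flight mass spectrometer in positive and negative ionization mode. The column was a Zorbax Extend-C18 (2.1 × 50 mm, 1.8 μm) at 100 μL/min, eluted with water and acetonitrile each holding 0.1% formic acid, with 40 μL dead and 900 μL dwell volumes. Retention time was determined from adduct peaks chosen by software and checked manually.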

**Q.** Which RP-LC retention time does the source give for `Cn1nc(-c2nnc(-c3ccc(F)cc3)o2)c2c1CCN(S(=O)(=O)c1cccc(C#N)c1)C2` here?
**A.** Its RP-LC retention time is 891 s.

**Q.** For `CCCCN(C)S(=O)(=O)c1cc(-c2nnc(C3CCCC3)o2)co1`, which RP-LC retention time is on record?
**A.** The RP-LC retention time was 1060 s.

**Q.** Which RP-LC retention time does the source give for `CCN1C(=O)COc2ccc(-c3csc(NC(=O)c4ccccc4OC)n3)cc21` here?
**A.** Its RP-LC retention time is 1040 s.

**Q.** For `Cc1ccc(N2CC(c3nc(-c4ccc5c(c4)nnn5C4CCCC4)no3)CC2=O)cc1` (stereo not drawn), which RP-LC retention time is on record?
**A.** The RP-LC retention time was 1070 s.

**Q.** Which RP-LC retention time does the source give for `COc1ccccc1-c1noc(C2CCCN2C(=O)Nc2cccc(F)c2)n1` (stereo not drawn) here?
**A.** Its RP-LC retention time is 894 s.

**Q.** Which RP-LC retention time does the source give for `CCOc1nc2ccccc2nc1N1CCCC(C(=O)N2CCN(c3ccccc3OC)CC2)C1` (stereo not drawn) here?
**A.** The RP-LC retention time was 1250 s.

**Q.** For `COc1ccc(CN2CC3(CCN(S(=O)(=O)c4cc(F)ccc4F)CC3)C2=O)cc1`, which RP-LC retention time is on record?
**A.** Its RP-LC retention time is 924 s.

**Q.** With `O=S(=O)(c1ccc(Cl)cc1)N1CCC(c2nc(-c3ccccn3)no2)CC1` as the molecule, how does the RP-LC retention time read?
**A.** The RP-LC retention time was 940 s.

**Q.** For `COc1ccc(NC(=O)C2CCc3sc(C(=O)N4CCCC4)cc3C2)cc1OC` (stereo not drawn), which RP-LC retention time is on record?
**A.** Its RP-LC retention time is 680 s.

**Q.** Which RP-LC retention time does the source give for `COc1ccccc1-c1noc(Cn2c(=O)n(-c3ccc(Cl)cc3)c(=O)c3sccc32)n1` here?
**A.** The RP-LC retention time was 950 s.

**Q.** With `CC(C)CCNC(=O)NCCc1nc2cccnc2n1Cc1ccccc1` as the molecule, how does the RP-LC retention time read?
**A.** Its RP-LC retention time is 726 s.

**Q.** Which RP-LC retention time does the source give for `CCCc1c(C(=O)O)nnn1-c1ccccc1F` here?
**A.** Its RP-LC retention time is 705 s.

**Q.** Which RP-LC retention time does the source give for `O=C(CCn1cnc2cc(-c3noc(COc4ccccc4)n3)ccc21)N1CCCC1` here?
**A.** Its RP-LC retention time is 730 s.

**Q.** With `Cc1ccc(CNC(=O)C2CCN(S(=O)(=O)c3ccc4c(c3)NC(=O)CO4)CC2)o1` as the molecule, how does the RP-LC retention time read?
**A.** The RP-LC retention time was 715 s.

**Q.** Which RP-LC retention time does the source give for `COC(=O)c1c(NC2CCCCC2)c2cccc(Cl)c2[nH]c1=O` here?
**A.** Its RP-LC retention time is 876 s.

**Q.** For `COc1cc2nccc(Oc3ccc(NC(=O)C4(C(=O)Nc5ccc(F)cc5)CC4)cc3)c2cc1OC`, which RP-LC retention time is on record?
**A.** Its RP-LC retention time is 833 s.

**Q.** Which RP-LC retention time does the source give for `O=C(CN1C(=O)COc2ccc(C(=O)N3CCCC3)cc21)N1CCN(c2ccccn2)CC1` here?
**A.** The RP-LC retention time was 583 s.

**Q.** Which RP-LC retention time does the source give for `CC(C)CNC(=O)c1ccc2c(c1)Sc1ncccc1C(=O)N2C1CC1` here?
**A.** The RP-LC retention time was 752 s.

**Q.** With `O=C(/C=C\c1ccccc1)Nc1ccc(-c2cn3cccnc3n2)cc1` as the molecule, how does the RP-LC retention time read?
**A.** The RP-LC retention time was 683 s.

**Q.** With `CCc1nc(N)n(CC(=O)Nc2ccc(C)cc2C)c(=O)c1C` as the molecule, how does the RP-LC retention time read?
**A.** The RP-LC retention time was 659 s.

**Q.** Which RP-LC retention time does the source give for `CCS(=O)(=O)N1N=C(c2cccs2)CC1c1ccc2nccnc2c1` (stereo not drawn) here?
**A.** Its RP-LC retention time is 724 s.

**Q.** With `O=C(NC1CCCCC1)N(Cc1ccccn1)Cc1ccco1` as the molecule, how does the RP-LC retention time read?
**A.** The RP-LC retention time was 635 s.

**Q.** Which RP-LC retention time does the source give for `CCc1noc2nc(CCC(=O)NCc3ccco3)nc(N3CCCCC3)c12` here?
**A.** The RP-LC retention time was 829 s.

**Q.** For `Cc1oc(-c2ccn[nH]2)cc1S(=O)(=O)Nc1ccc(F)c(Cl)c1`, which RP-LC retention time is on record?
**A.** Its RP-LC retention time is 852 s.

**Q.** With `COC(=O)c1ccc2c(=O)n(CCc3ccccc3)c(N3CCC(C)CC3)nc2c1` as the molecule, how does the RP-LC retention time read?
**A.** Its RP-LC retention time is 1380 s.

**Q.** With `Cc1cccc(Cn2nc3n(Cc4ccc(F)cc4)c(=O)c4nn(C)cc4n3c2=O)c1` as the molecule, how does the RP-LC retention time read?
**A.** Its RP-LC retention time is 940 s.

**Q.** With `Cc1cc(Cl)ccc1OCc1nc(-c2ccc3c(c2)nnn3CCC(=O)N2CCOCC2)no1` as the molecule, how does the RP-LC retention time read?
**A.** Its RP-LC retention time is 974 s.

**Q.** For `Cc1cc(NS(=O)(=O)c2cc3n(c2)CCCNC3=O)ccc1F`, which RP-LC retention time is on record?
**A.** The RP-LC retention time was 671 s.

**Q.** With `O=S(=O)(Nc1cccc(Cl)c1)c1ccc(-c2nnc(C3CCC3)o2)o1` as the molecule, how does the RP-LC retention time read?
**A.** Its RP-LC retention time is 967 s.

**Q.** With `CCOc1cccc(-c2noc(-c3nnn4c3COC(c3ccc(OC)cc3)C4)n2)c1` (stereo not drawn) as the molecule, how does the RP-LC retention time read?
**A.** The RP-LC retention time was 1210 s.

**Q.** Which RP-LC retention time does the source give for `COCCCNC(=O)Cc1cn(C)c2ncccc12` here?
**A.** The RP-LC retention time was 576 s.

**Q.** Which RP-LC retention time does the source give for `O=C(NCCOCCOCCNC(=O)Nc1ccccc1)Nc1ccccc1` here?
**A.** The RP-LC retention time was 679 s.

**Q.** Which RP-LC retention time does the source give for `COc1ccc(NC(=O)N(C)CC2CCOCC2)c(C)c1` here?
**A.** The RP-LC retention time was 670 s.

**Q.** For `Cc1ccc(C)c(N2CC(c3nc(-c4ccc5c(c4)OCO5)no3)CC2=O)c1` (stereo not drawn), which RP-LC retention time is on record?
**A.** The RP-LC retention time was 998 s.

**Q.** With `CC(C)(C)NCC(O)COc1ccc(NC(=O)NC2CCCCC2)cc1` (stereo not drawn) as the molecule, how does the RP-LC retention time read?
**A.** Its RP-LC retention time is 628 s.

**Q.** With `Cc1cc2nc(C(=O)Nc3ccc(C)c(C)c3)cc(C)n2n1` as the molecule, how does the RP-LC retention time read?
**A.** Its RP-LC retention time is 1090 s.

**Q.** Which RP-LC retention time does the source give for `CN(CCc1noc(-c2ccc(C(=O)N3CCOCC3)cc2)n1)C(=O)Cc1ccc(Cl)cc1` here?
**A.** The RP-LC retention time was 757 s.

**Q.** Which RP-LC retention time does the source give for `CCOC(=O)N1CCN(c2cc(C(=O)O)c3cc(NC(=O)COc4ccccc4)ccc3n2)CC1` here?
**A.** Its RP-LC retention time is 629 s.

**Q.** For `CC(=O)c1cccc(NC(=O)c2cnn3c4c(cnc23)CCCCCC4)c1`, which RP-LC retention time is on record?
**A.** The RP-LC retention time was 1030 s.

**Q.** With `COc1ccc(-c2ccc(=O)n(Cc3nc(-c4ccccc4)no3)n2)cc1` as the molecule, how does the RP-LC retention time read?
**A.** Its RP-LC retention time is 954 s.

**Q.** With `CCN(CC)C(=O)c1cccnc1` as the molecule, how does the RP-LC retention time read?
**A.** The RP-LC retention time was 627 s.

**Q.** With `CCN1C(SCC(=O)Nc2c(C)cc(C)cc2C)=NS(=O)(=O)c2ccccc21` as the molecule, how does the RP-LC retention time read?
**A.** The RP-LC retention time was 788 s.

**Q.** Which RP-LC retention time does the source give for `O=C1CCN(C(=O)c2ccsc2)CCCOCCN1` here?
**A.** Its RP-LC retention time is 586 s.

**Q.** With `CCc1ccc(CNC(=O)CCC(=O)N2CCCn3nc(C)cc32)cc1` as the molecule, how does the RP-LC retention time read?
**A.** The RP-LC retention time was 666 s.

**Q.** For `CCOC(=O)C1=C(CN(CC)Cc2ccccc2)NC(=O)NC1c1ccc(F)cc1` (stereo not drawn), which RP-LC retention time is on record?
**A.** Its RP-LC retention time is 696 s.

**Q.** For `CCCNc1cc(N2CCC(CCC(=O)NCc3ccc(Cl)cc3)CC2)ncn1`, which RP-LC retention time is on record?
**A.** Its RP-LC retention time is 718 s.

**Q.** Which RP-LC retention time does the source give for `CCC(C)NC(=O)C1CCN(S(=O)(=O)c2c(C)nn(-c3ccc(C)cc3)c2C)CC1` (stereo not drawn) here?
**A.** Its RP-LC retention time is 683 s.

**Q.** Which RP-LC retention time does the source give for `Cn1cc(CCN2CCC(C(=O)NCc3cccc(F)c3)CC2)c2cccnc21` here?
**A.** The RP-LC retention time was 599 s.

**Q.** With `C[C@]12CCC3=C4CCC(=O)C=C4CC[C@H]3[C@@H]1CC[C@@]2(O)CC#N` as the molecule, how does the RP-LC retention time read?
**A.** Its RP-LC retention time is 796 s.

**Q.** Which RP-LC retention time does the source give for `O=C(CSc1nc(-c2ccccc2)cs1)NCc1ccco1` here?
**A.** The RP-LC retention time was 839 s.

**Q.** With `CCc1noc(NC(C)=O)c1-c1ccc(C)c(S(=O)(=O)NCc2ccc3c(c2)OCO3)c1` as the molecule, how does the RP-LC retention time read?
**A.** The RP-LC retention time was 814 s.

**Q.** Which RP-LC retention time does the source give for `O=C(CCc1nc2ccccc2[nH]1)N1CCC(c2noc(-c3ccccn3)n2)C1` (stereo not drawn) here?
**A.** The RP-LC retention time was 581 s.

**Q.** Which RP-LC retention time does the source give for `COc1ccccc1CNC(=O)Cn1ccc2ccc(-c3nnc(C)o3)cc21` here?
**A.** Its RP-LC retention time is 763 s.

**Q.** For `CC(=O)N1CCC(C(=O)Nc2nccs2)CC1`, which RP-LC retention time is on record?
**A.** The RP-LC retention time was 584 s.

**Q.** With `COc1cc(C(=O)Nc2c(-c3ccccc3)nc3ccccn23)cc(OC)c1OC` as the molecule, how does the RP-LC retention time read?
**A.** Its RP-LC retention time is 636 s.

**Q.** With `COc1ccc(NC(=O)N2CCN(c3cnn4c(C)nnc4c3)CC2)cc1` as the molecule, how does the RP-LC retention time read?
**A.** Its RP-LC retention time is 594 s.

**Q.** For `O=C(Cn1nc(-c2cccnc2)ccc1=O)Nc1nc2ccccc2[nH]1`, which RP-LC retention time is on record?
**A.** The RP-LC retention time was 528 s.

**Q.** Which RP-LC retention time does the source give for `c1cc(-c2nc(-c3ccc(-c4csc(C5CC5)n4)cc3)no2)ccn1` here?
**A.** The RP-LC retention time was 1290 s.

**Q.** For `Cc1noc(C2CCCCCN2C(=O)NC(C)C)n1` (stereo not drawn), which RP-LC retention time is on record?
**A.** The RP-LC retention time was 708 s.

**Q.** For `Cc1ccc(C(=O)NCCc2nc3cccnc3n2C)s1`, which RP-LC retention time is on record?
**A.** Its RP-LC retention time is 596 s.

**Q.** Which RP-LC retention time does the source give for `COc1ccccc1NC(=O)N1CCOc2ccc(Cl)cc21` here?
**A.** The RP-LC retention time was 1050 s.

**Q.** With `CCC1(C(=O)NCc2ccc(Cl)cc2)CCCCC(=O)N1` (stereo not drawn) as the molecule, how does the RP-LC retention time read?
**A.** The RP-LC retention time was 738 s.

**Q.** Which RP-LC retention time does the source give for `Cc1cc(C)cc(NC(=O)Nc2nccn(-c3cccc(Cl)c3)c2=O)c1` here?
**A.** The RP-LC retention time was 1110 s.

**Q.** With `CCn1cc(S(=O)(=O)Nc2ccc(OC)c(Cl)c2)c2cccnc21` as the molecule, how does the RP-LC retention time read?
**A.** The RP-LC retention time was 832 s.

**Q.** Which RP-LC retention time does the source give for `O=C(Nc1cccc(Cl)c1)Nc1c(-c2ccc(F)cc2)nc2ccccn12` here?
**A.** Its RP-LC retention time is 730 s.

**Q.** Which RP-LC retention time does the source give for `Cc1ccc(C(=O)N2C[C@@H](C)[C@H](c3nc(C)no3)C2)cn1` here?
**A.** Its RP-LC retention time is 593 s.

**Q.** With `Cc1nn(C)cc1CN(C)C(=O)CC(c1ccccc1)c1ccccc1` as the molecule, how does the RP-LC retention time read?
**A.** The RP-LC retention time was 765 s.

**Q.** For `COc1ccc(C2(C(=O)N3CCC4(CC3)CN(C(C)C)C4c3ccccc3)CC2)cc1` (stereo not drawn), which RP-LC retention time is on record?
**A.** Its RP-LC retention time is 684 s.
